We go through 27 compounds from US11555014B2, “High penetration prodrug compositions of prostaglandins and related compounds” (Techfields Pharma Co., Ltd., priority 2006, dated 2023).

The test system of one data set is cat eye. In words: Irritative effect or ocular discomfort in the cat eye after topical application. Type of data set: in vivo. The settings on record: first 2 hours, scale 0 (no discomfort) to 4 (maximal irritation, complete lid closure). As to the method: Irritative effect or ocular discomfort in the cat eye of naturally occurring and modified prostaglandins and their novel prodrugs were evaluated during the first hours after the topical application of the respective test drug. The ocular discomfort was graded on a scale from 0 to 4, 0 indicating complete absence of any signs of discomfort, and 4 indicating maximal irritation as obvious from complete lid closure.

For another data set, the system named is rabbit eye. In words: Conjunctival hyperemia in the rabbit eye after topical application. Particulars: first 2 hours, scale 0 (no hyperemia) to 4 (marked hyperemia with conjunctive chemosis). The data set is classed as in vivo. As to the method: Conjunctival hyperemia in the rabbit eye of naturally occurring and modified prostaglandins and their novel prodrugs was evaluated during the first 2 hours after topical application of the respective test drug. The conjunctival hyperemia was graded on a scale from 0 to 4, 0 indicating complete absence of any hyperemia, and 4 indicating marked hyperemia with conjunctive chemosis.

The nature of data set [1]: In vitro penetration rate across isolated human skin in modified Franz cells. Particulars: for In vitro penetration rate (apparent flux), parent compounds: 10% suspension in pH 7.4 phosphate buffer (0.2 M), n=5, lowest detectable flux 1 μg/cm^2/h; for In vitro penetration rate (apparent flux), prodrug compounds: 10% solution in pH 7.4 phosphate buffer (0.2 M), n=5.
Description: The penetration rates of HPPs and their parent drugs through human skin were measured in vitro by modified Franz cells. The Franz cells have two chambers, the top sample chamber and the bottom receiving chamber. The human skin tissue (360-400 μm thick) that separates the top and the receiving chambers was isolated from the anterior or posterior thigh areas.
The compound tested (2 mL, 20% in 0.2 M phosphate buffer, pH. 7.4) were added to the sample chamber of a Franz cell. The receiving chamber contains 10 ml of 2% bovine serum albumin in saline which was stirred at 600 rpm. The cumulative amounts of the tested compounds penetrating the skin versus time were determined by high-performance liquid chromatography (HPLC) method.
Data set [2] deals with cats with ocular hypertension. Put plainly: Intraocular pressure (IOP) reduction in cats with ocular hypertension produced by laser trabeculoplasty. Type of data set: in vivo, cat. Here is the method: The ability of certain compounds of the present invention to reduce intraocular pressure (IOP) was evaluated in cats with ocular hypertension produced by previously done laser trabeculoplastry. IOP was determined with a pneumatonometer after light corneal anesthesia with dilute proparacaine. Baseline IOP was determined prior to treatment with the test compound aqueous solution. 6 divided doses were administered over a period of 3 days (once every 12 hours). IOP was determined 24 hours after the initial dose and then once every 12 hours. The therapeutically efficient amount is typically between 0.001 and 0.01% in pH 7.2 phosphate buffer (0.1 M). The treatment was carried out in that one drop (about 30 micro liter) of the composition. The results of N,N-diethylaminoethyl 11,15-dihydroxy-9-oxoprost-13-en-1-oate.AcOH (A), N,N-diethylaminoethyl 11,15-dihydroxyl-9-oxoprosta-5,13-dien-1-oate.AcOH (B), N,N-diethylaminoethyl 9,11,15-trihydroxyprosta-5,13-dien-1-oate.AcOH(C), N,N-diethylaminoethyl 9,11-dihydroxy-15-keto-20-ethylprost-5,13-dien-1-oate.AcOH (9,11-dihydroxy-15-keto-20-ethylprostaglandin F2α N,N-diethylaminoethyl ester) (D), N,N-diethylaminoethyl (Z)-7-{(1R,2R,3R,5S)-3,5-dihydroxy-2-[(1E,3R)-3-hydroxy-4-[(α,α,α-trifluoro-m-tolyl)oxy]-1-butenyl]cyclopentyl}-5-heptenoate.AcOH (E), N,N-diethylaminoethyl (Z)-7{(1R,2R,3R,5S)-3,5-dihydroxy-2-[(3R)-3-hydroxy-5-phenylpentyl]cyclopentyl}-5-heptenoate.AcOH (F), and N,N-diethylaminoethyl (Z)-7-{(1R,2R,3R,5S)-3,5-Dihydroxy-2-[(1E,3S)-3-hydroxy-5-phenyl-1-pentenyl]cyclopentyl}-heptenoate.AcOH (G) are shown in Table 2.

The mark [3] stands for this setting: dose 0.01%, one drop topical every 12 hours, 6 doses.

Take `CCCCC[C@H](O)/C=C/[C@H]1[C@H](O)CC(=O)[C@@H]1CCCCCCC(=O)O` [PGE1, reference compound]: the “Degree of irritative effect” value with cat eye (dose 0.001% topical) was 4. In addition, the “Degree of irritative effect (conjunctival hyperemia)” value (from here on “Degree … (conjunctival hyperemia)”) in the data set on rabbit eye (dose 0.001% topical) is 4.

With `CCNC(=O)CCC/C=C\C[C@@H]1[C@@H](/C=C/[C@@H](O)CCc2ccccc2)[C@H](O)C[C@@H]1O` [Bimatoprost, reference compound], in the data set with cat eye (dose 0.001% topical), the “Degree of irritative effect” value came out at 2.5. Also, the “Degree … (conjunctival hyperemia)” value in the data set on rabbit eye (dose 0.001% topical) is given as 2.5. Also, the “In vitro penetration rate (apparent flux), parent compounds” value in data set [1] is on record as 0.001 mg/cm^2/h.

Regarding `CC(=O)O.CCN(CC)CCOC(=O)CCCC=CCC1C(O)CC(O)C1C=CC(O)COc1cccc(Cl)c1` (centres unmarked) [N,N-diethylaminoethyl 7-{2-[4-(3-chlorophenoxy)-3-hydroxy-1-butenyl]-3,5-dihydroxycyclopentyl}-5-heptenoate•AcOH], the “In vitro penetration rate (apparent flux), prodrug compounds” value in data set [1] turned out to be 0.92 mg/cm^2/h.

In the case of `CCCCC[C@H](O)/C=C/[C@H]1[C@H](O)CC(=O)[C@@H]1C/C=C\CCCC(=O)O` [PGE2, reference compound], the “Degree of irritative effect” value in the data set on cat eye (dose 0.001% topical) was 3.5. In addition, the “Degree … (conjunctival hyperemia)” value in the data set on rabbit eye (dose 0.001% topical) is listed as 4. Also, the “In vitro penetration rate (apparent flux), parent compounds” value in data set [1] was 0.001 mg/cm^2/h.

Turning to `CS(=O)(=O)NC(=O)CCC/C=C\C[C@H]1C(=O)C[C@@H](O)[C@@H]1/C=C/[C@@H](O)COc1ccccc1` [Sulprostone, reference compound], the “In vitro penetration rate (apparent flux), parent compounds” value in data set [1] is on record as 0.001 mg/cm^2/h.

For `CC(=O)O.CCN(CC)CCOC(=O)CCCC=CCC1C(=O)CC(O)C1C=CC(O)COc1ccccc1` (centres unmarked) [N,N-diethylaminoethyl 7-[3-hydroxy-2-(3-hydroxy-4-phenoxy-1-butenyl)-5-oxocyclopentyl]-5-heptenoate•AcOH], the “In vitro penetration rate (apparent flux), prodrug compounds” value in data set [1] is 1.01 mg/cm^2/h.

As for `CCCCC(C)(O)C/C=C/[C@H]1[C@H](O)CC(=O)[C@@H]1CCCCCCC(=O)OC` (mixture of isomers) [Misoprostol, reference compound], the “In vitro penetration rate (apparent flux), parent compounds” value in data set [1] came to 0.001 mg/cm^2/h.

For `CC(=O)O.CCCCC(C)(O)CC=C[C@H]1C(O)CC(=O)[C@@H]1CCCCCCC(=O)OCCN(CC)CC` (some centres unmarked) [N,N-diethylaminoethyl 11,16-dihydroxy-9-oxo-16-methylprost-13-en-1-oate•AcOH], the “In vitro penetration rate (apparent flux), prodrug compounds” value in data set [1] was determined as 1.09 mg/cm^2/h.

Regarding `CCCCC(C)(C)[C@H](O)/C=C/[C@H]1[C@H](O)CC(=O)[C@@H]1CCCC/C=C/C(=O)OC` [Gemeprost, reference compound], the “In vitro penetration rate (apparent flux), parent compounds” value in data set [1] worked out at 0.001 mg/cm^2/h.

With `CC(C)OC(=O)CCC/C=C\C[C@@H]1[C@@H](CC[C@@H](O)CCc2ccccc2)[C@H](O)C[C@@H]1O` [Latanoprost, 13,14-dihydro-17-phenyl-18,19,20-trinor PGF2α isopropyl ester, reference compound], the “Degree of irritative effect” value in the data set with cat eye (dose 0.001% topical) is reported as 2.5. In data set [1], the “In vitro penetration rate (apparent flux), parent compounds” value is 0.001 mg/cm^2/h.

Turning to `CCCCC[C@H](O)/C=C/[C@@H]1[C@@H](CCCCCCC(=O)O)[C@@H](O)C[C@H]1O` [PGE1α, reference compound], in data set [1], the “In vitro penetration rate (apparent flux), parent compounds” value stood at 0.001 mg/cm^2/h.

In the case of `CC(=O)O.CCCCC(C)(C)C(O)C=C[C@H]1C(O)CC(=O)[C@@H]1CCCCC=CC(=O)OCCN(CC)CC` (some centres unmarked) [N,N-diethylaminoethyl 11,15-dihydroxy-16,16-dimethyl-9-oxoprosta-2,13-dien-1-oate•AcOH], the “In vitro penetration rate (apparent flux), prodrug compounds” value in data set [1] is reported as 0.88 mg/cm^2/h.

As for `CCCCCCCC(=O)CC[C@@H]1[C@@H](C/C=C\CCCC(=O)O)[C@@H](O)C[C@H]1O` [Unoprostone, 13,14-dihydro-15-keto-20-ethyl Prostaglandin F2α, reference compound], the “Degree of irritative effect” value in the data set on cat eye (dose 0.01% topical) is 2.5. Further, the “Degree … (conjunctival hyperemia)” value with rabbit eye (dose 0.01% topical) came to 2.5. Further, the “In vitro penetration rate (apparent flux), parent compounds” value in data set [1] is recorded as 0.001 mg/cm^2/h.

As for `CC(=O)O.CCCCCCCC(=O)C=C[C@H]1C(O)CC(O)[C@@H]1CC=CCCCC(=O)OCCN(CC)CC` (some centres unmarked) [N,N-diethylaminoethyl 9,11-dihydroxy-15-keto-20-ethylprost-5,13-dien-1-oate.AcOH], in data set [2] (setting [3]), the “Intraocular pressure, 24 hours after administration” value turned out to be 16.5 ± 0.6; the “Intraocular pressure, 36 hours after administration” value is 16.7 ± 0.4; the “Intraocular pressure, 48 hours after administration” value was 16.8 ± 0.6; the “Intraocular pressure, 60 hours after administration” value is recorded as 17.1 ± 0.5. Moreover, in data set [2] (setting [3]), the “Intraocular pressure, 72 hours after administration” value came to 16.8 ± 0.5. The “Intraocular pressure, baseline” value in data set [2] (prior to treatment, group dosed 0.01%) is 22.0 ± 0.6. Besides, the “Degree of irritative effect” value in the data set with cat eye (dose 0.01% topical) was 1. In addition, in the data set on rabbit eye (dose 0.01% topical), the “Degree … (conjunctival hyperemia)” value was determined as 1. The “In vitro penetration rate (apparent flux), prodrug compounds” value in data set [1] was 1.05 mg/cm^2/h.

For `COC(=O)CCC=C=CCC1C(O)CC(O)C1/C=C/C(O)COc1ccccc1` (centres unmarked) [fenprostalene, reference compound], the “In vitro penetration rate (apparent flux), parent compounds” value in data set [1] is recorded as 0.001 mg/cm^2/h.

As for `CCCCC[C@H](O)/C=C/[C@@H]1[C@@H](C/C=C\CCCC(=O)O)[C@@H](O)C[C@H]1O` [PGF2α, reference compound], in the data set on cat eye (dose 0.001% topical), the “Degree of irritative effect” value is 3.5. In addition, the “Degree … (conjunctival hyperemia)” value with rabbit eye (dose 0.001% topical) came to 4.

On to `CCCCCC(C)(O)/C=C/[C@@H]1[C@@H](CC=C=CCCC(=O)OC)[C@@H](O)C[C@H]1O` (some centres unmarked) [Prostalene, reference compound], for which the “In vitro penetration rate (apparent flux), parent compounds” value in data set [1] came out at 0.001 mg/cm^2/h.

`CCCCC[C@](C)(O)/C=C/[C@@H]1[C@@H](C/C=C\CCCC(=O)O)[C@@H](O)C[C@H]1O` [Carboprost, reference compound]: the “In vitro penetration rate (apparent flux), parent compounds” value in data set [1] is 0.001 mg/cm^2/h.

With `CC(=O)O.CCCCCC(O)C=C[C@H]1C(O)CC(O)[C@@H]1CCCCCCC(=O)OCCN(CC)CC` (some centres unmarked) [N,N-diethylaminoethyl 9,11,15-trihydroxyprost-13-en-1-oate•AcOH], the “In vitro penetration rate (apparent flux), prodrug compounds” value in data set [1] came to 0.85 mg/cm^2/h.

Take `CC(=O)O.CCCCCC(O)C=C[C@H]1C(O)CC(=O)[C@@H]1CC=CCCCC(=O)OCCN(CC)CC` (some centres unmarked) [N,N-diethylaminoethyl 11,15-dihydroxy-9-oxoprosta-5,13-dien-1-oate.AcOH]: the “In vitro penetration rate (apparent flux), prodrug compounds” value in data set [1] worked out at 1.10 mg/cm^2/h.

As to `CC(=O)O.CCN(CC)CCOC(=O)CCC=C=CCC1C(O)CC(O)C1C=CC(O)COc1ccccc1` (centres unmarked) [N,N-diethylaminoethyl 7-[3,5-dihydroxy-2-(3-hydroxy-4-phenoxy-1-butenyl)cyclopentyl]-4,5-heptadien-1-oate•AcOH], the “In vitro penetration rate (apparent flux), prodrug compounds” value in data set [1] is 0.81 mg/cm^2/h.

With `O=C(O)CCC/C=C\CC1C(O)CC(O)C1/C=C/C(O)COc1cccc(Cl)c1` (centres unmarked) [Cloprostenol, reference compound], the “In vitro penetration rate (apparent flux), parent compounds” value in data set [1] amounted to 0.001 mg/cm^2/h.

`CCCCC[C@H](O)/C=C/[C@@H]1[C@H]2C/C(=C/CCCC(=O)O)O[C@H]2C[C@H]1O` [PGI2, prostacyclin, reference compound]: the “In vitro penetration rate (apparent flux), parent compounds” value in data set [1] was found to be 0.001 mg/cm^2/h.

For the compound `CC(=O)O.CCN(CC)CCOC(=O)CCCC=CCC1C(O)CC(O)C1C=CC(O)COc1cccc(C(F)(F)F)c1` (centres unmarked) [N,N-diethylaminoethyl 7-{3,5-dihydroxy-2-[3-hydroxy-4-(3-trifluoromethylphenoxy)-1-butenyl]cyclopentyl}-5-heptenoate•AcOH], the “In vitro penetration rate (apparent flux), prodrug compounds” value in data set [1] was 0.86 mg/cm^2/h.

For the compound `CC(=O)O.CCCCCC(C)(O)C=C[C@H]1C(O)CC(O)[C@@H]1CC=C=CCCC(=O)OCCN(CC)CC` (some centres unmarked) [N,N-diethylaminoethyl 9,11,15-trihydroxy-15-methylprosta-4,5,13-trien-1-oate•AcOH], the “In vitro penetration rate (apparent flux), prodrug compounds” value in data set [1] is on record as 0.90 mg/cm^2/h.

Consider `CC(=O)O.CCCCCC(O)C=C[C@H]1C(O)CC2OC(=CCCCC(=O)OCCN(CC)CC)C[C@@H]21` (some centres unmarked) [N,N-diethylaminoethyl 6,9-epoxy-11,15-dihydroxyprosta-5,13-dien-1-oate•AcOH], for which the “In vitro penetration rate (apparent flux), prodrug compounds” value in data set [1] stood at 1.11 mg/cm^2/h.

For the compound `O=C(O)CCC/C=C\C[C@@H]1[C@@H](/C=C/[C@@H](O)COc2cccc(C(F)(F)F)c2)[C@H](O)C[C@@H]1O` (racemic) [Fluprostenol, reference compound], the “In vitro penetration rate (apparent flux), parent compounds” value in data set [1] amounted to 0.001 mg/cm^2/h.
